Assay results taken from patent US9587001B2, “Conjugated knottin mini-proteins containing non-natural amino acids” (priority 2012, dated 2017).
Starred links: 1 amine or outer side, 2 acyl side, 3 side chain; linkers in the order of their positions; H or OH if unused. Positions of bridges follow the written chain, without caps; N, C: chain ends. Non-standard residues stand in square brackets, D forms with d. Residues, ends and D or L forms follow the SMILES beside them. Primed or numbered codes have the meaning given here. Chains are numbered I, II in the order given. No end group written: not given here. AO″ = AO: aminooxy residue, 2-amino-3-(2-(aminooxy)acetamido)propanoic acid (side chain carries R'-O-NH2), O=C(CON[*:3])NC[C@H](N[*:1])C(=O)[*:2]; X1 = O=C(NCCCOCCCCOCCCNC(=O)c1ccc(C=NOCC(=O)[*:2])cc1)c1ccc(C=NOCC(=O)[*:1])cc1; Dap = NC[C@H](N)C(=O)O

Assays:
[1] = test system: MDA231 (Human breast adenocarcinoma); assay: Inhibition of proliferation, MDA231 carcinoma line; assay type: cell-based; conditions: for Proliferation: Cell line: MDA231; for inhibition of tumor cell proliferation, comparison between dimers, monomer and Cilengitide: Table 3 results
Procedure: (§1) Dimers of the present knottins with AO groups incorporated at different positions were prepared and conjugated with different linkages. There were tested for activity against carcinoma lines. As identified there, Dimer 1 is EETI 2.5F where the AO group was incorporated in place of Lys15, conjugated through the 17.3 Angstrom linker shown in FIG. 1B; Dimer 2 is EETI 2.5F, where the AO group was incorporated in place of Lys15, conjugated though the 68.5 Angstrom linker shown in FIG. 9. Dimer 3 is EETI 2.5F, where the AO group was incorporated at the C-terminus following residue 33, conjugated through a 17.3 Angstrom linker shown in FIG. 1B; Dimer 4 is EETI 2.5F, where the AO group was incorporated at the C-terminus following residue 33, conjugated through the 68.5 Angstrom linker shown in FIG. 9. […] Also, it was observed that the length of the linkage had only a minor effect on binding. Binding, of course, it correlated with the activity in proliferation and apoptosis.

[2] = test system: SKOV 3 (Ovarian adenocarcinoma); assay: Inhibition of proliferation, SKOV 3 carcinoma line; assay type: cell-based; conditions: Cell line: SKOV 3
Procedure: as §1

U87MG cells [3] = assay type: cell-based, human; conditions: for EC50: U87MG cells on fibronectin coated plates, 1 h at 37° C., read-out: Adhesion EC50
Procedure: FIG. 3A is a graph measuring comparative inhibition of adhesion of U87MG cells treated with dimeric and monomeric 2.5F to fibronectin, a component of ECM. Fibronectin coated plates were incubated with U87MG cells with the indicated concentrations of peptides. Adherent cells remaining after several wash steps were quantified with crystal violet staining by absorbance at 600 nm. […] Values were normalized to negative control containing no competing peptides.
FIG. 7 is a graph measuring comparative inhibition of adhesion of U87MG cells treated with dimeric and monomeric 2.5F or Cilgenitide to fibronectin, a component of ECM. Fibronectin coated plates were incubated with U87MG cells with the indicated concentrations of peptides. Adherent cells remaining after several wash steps were quantified with crystal violet staining by absorbance at 600 nm. Values were normalized to negative control containing no competing peptides.
Varying concentrations of peptides were added to 4×10^4 cells in 100 μl of IBB, incubated for 1 h at 37° C., 5% CO2, and gently washed with Dulbecco's PBS (DPBS, Invitrogen). Remaining adherent cells were incubated with 100 μl of 0.2% crystal violet and 10% ethanol for 10 min at room temperature, washed in DPBS and solubilized with 100 μl/well of a 50:50 mixture of 100 mM sodium phosphate, pH 4.5 and ethanol for 10 min. The absorbance at 600 nm was measured using Synergy HT microplate reader (BioTek).

[4] = test system: MDA231 (Human breast adenocarcinoma); assay: Apoptosis (Caspase-3), MDA231 carcinoma line; assay type: cell-based; conditions: Cell line: MDA231
Procedure: as §1

U87MG cells [5] = assay: Cytotoxicity / inhibition of proliferation of U87MG cells (AlamarBlue); assay type: cell-based, human
Procedure: FIG. 4A is a bar graph showing time dependent cytotoxicity of U87MG cells after treatment with the indicated knottin mini-proteins. Cytotoxicity was monitored by incubating U87MG cells on culture plates with 500 nM of each knottin in 4% FBS media at 37° C. and 5% CO2 and measuring cell viability at 24, 48, and 72 h after the treatment using the AlamarBlue indicator dye.
FIG. 4B is a bar graph showing dose dependent cytotoxicity of U87MG cells assessed by treating with different concentrations of knottins for 72 h and measuring cell viability using the AlamarBlue indicator dye.
FIG. 8 is a bar graph showing dose dependent cytotoxicity of U87MG cells assessed by treating with different concentrations of dimeric or monomeric 2.5F or Cilgenitide for 72 h and measuring cell viability using the AlamarBlue indicator dye.

[6] = test system: U87MG cells expressing αvβ3, αvβ5, and α5β1 integrins; assay: Competition binding assay to U87MG cells (flow cytometry); set-up: species or system human; conditions: for IC50: 4° C. for 10 h, average of three experiments; for increase of apparent binding affinity of dimer compared to the monomer: from IC50 values
Procedure: FIG. 2B is a graph showing a competition assay of EETI-based integrin binding proteins 2.5F dimer and 2.5F monomer to U87MG cells, as measured by flow cytometry. Alexa488-labeled EETI 2.5F was used as a competitor. Monomeric EETI 2.5F with an introduced aminooxy residue is designated as 2.5F_AO.
FIG. 2C is a graph showing a competition assay of AgRP-based integrin binding proteins: dimeric 7C and monomeric 7C to U87MG cells, as measured by flow cytometry. Alexa488-labeled AgRP 7C was used as a competitor. Monomeric AgRP 7C with aminooxy residue is designated as Monomeric 7C_AO.
Alexa488-labeled EETI 2.5F was used as a competitor.
Competition binding assays were performed to measure the relative binding affinities of engineered knottins to U87MG cells expressing αvβ3, αvβ5, and α5β1 integrins (FIG. 2A, 2B, 2C). 2×10^5 U87MG cells were incubated at 4° C. for 10 h in integrin binding buffer (20 mM Tris pH 7.5, 1 mM MgCl2, 1 mM MnCl2, 2 mM CaCl2, 100 mM NaCl, and 0.1% BSA) and varying concentrations of the peptides with 0.25 nM of Alexa488-labeled EETI 2.5F as a competitor for dimeric and monomeric EETI 2.5F, and 5 nM of Alexa488-labeled AgRP 7C as a competitor for dimeric and monomeric AgRP 7C. Half-maximal inhibitory concentration (IC50) values were determined by nonlinear regression analysis using KaleidaGraph (Synergy Software), and are presented as the average of three separate experiments.

U87MG cells [7] = assay: U87MG cell morphology after knottin treatment (microscope images); assay type: cell-based, human; conditions: 500 nM, 24 h, DMEM media with 4% FBS
Procedure: FIG. 3B is a panel of microscope images of the U87MG cells on culture plates after 24 h treatment with 500 nM of the indicated knottins.

[8] = 0.25 nM Alexa488-labeled EETI 2.5F as competitor

Molecule	Proliferation [1]	inhibition of tumor cell proliferation, comparison between dimers, monomer and Cilengitide [1]	Proliferation [2]	inhibition of U87MG cell adhesion to fibronectin (in words) (U87MG cells [3]; fibronectin-coated plates)	Apoptosis (Caspase-3) [4]	inhibition of U87MG cell proliferation (U87MG cells [5]; 10 nM, 72 hours) [%]	inhibition of U87MG cell proliferation (U87MG cells [5]; 100 nM, 72 hours) [%]	inhibition of U87MG cell proliferation (U87MG cells [5]; 500 nM, 24 h) [%]	inhibition of U87MG cell proliferation (U87MG cells [5]; 500 nM, 48 h) [%]	inhibition of U87MG cell proliferation (U87MG cells [5]; 500 nM, 72 h) [%]	inhibition of U87MG cell proliferation (U87MG cells [5]; 1000 nM, 72 hours) [%]	IC50 [6, 8] [nM]	EC50 (U87MG cells [3]) [nM]	U87MG cell morphology (U87MG cells [7])	increase of apparent binding affinity of dimer compared to the monomer [6]	other results
2.5F Dimer2: EETI 2.5F, AO in place of Lys15, conjugated though the 68.5 Angstrom linker shown in FIG. 9 (GCPRPRGDNPPLTC[AO″]QDSDCLAGCVCGPNGFCG; ends and bridges not checked; also: dimer (Dimer2) conjugated through 68.5 Angstrom linker via AO15)	Strong inhibition	more strongly inhibited tumor cell proliferation compared to Dimers 3 and 4	Strong inhibition													
CC(C)[C@H]1C(=O)N[C@@H](CCCN=C(N)N)C(=O)NCC(=O)N[C@@H](CC(=O)O)C(=O)N[C@H](Cc2ccccc2)C(=O)N1C [Cilengitide, reference compound]	Weak inhibition			does not inhibit	Moderate induction											
CC(C)C[C@@H]1NC(=O)[C@@H]2CSSC[C@@H](C(=O)NCC(=O)O)NC(=O)[C@H](Cc3ccccc3)NC(=O)CNC(=O)[C@H](CC(N)=O)NC(=O)[C@@H]3CCCN3C(=O)CNC(=O)[C@@H]3CSSC[C@H](NC(=O)[C@H]([C@@H](C)O)NC(=O)[C@H](CC(C)C)NC(=O)[C@@H]4CCCN4C(=O)[C@@H]4CCCN4C(=O)[C@H](CC(N)=O)NC(=O)[C@H](CC(=O)O)NC(=O)CNC(=O)[C@H](CCCNC(=N)N)NC(=O)[C@@H]4CCCN4C(=O)[C@H](CCCNC(=N)N)NC(=O)[C@@H]4CCCN4C(=O)[C@@H](NC(=O)CN)CSSC[C@H](NC(=O)CNC(=O)[C@H](C)NC1=O)C(=O)N[C@@H](C(C)C)C(=O)N3)C(=O)N[C@@H](CCCCN)C(=O)N[C@@H](CCC(N)=O)C(=O)N[C@@H](CC(=O)O)C(=O)N[C@@H](CO)C(=O)N[C@@H](CC(=O)O)C(=O)N2 [EETI 2.5F] (H-GCPRPRGDNPPLTCKQDSDCLAGCVCGPNGFCG-OH; disulfide 2-24, 14-26, 20-32)	Weak inhibition			able to inhibit	Moderate induction	15	30	37	44	50	60	1.64 ± 0.03	180 ± 14	rounded morphology		
I: GCPRPRGDNPPLTC[Dap]QDSDCLAGCVCGPNGFCG / II: GCPRPRGDNPPLTC[Dap]QDSDCLAGCVCGPNGFCG (disulfide I:2-I:24, I:14-I:26, I:20-I:32, II:2-II:24, II:14-II:26, II:20-II:32; linker I:15-II:15 via X1) [EETI 2.5F Dimer]	Strong inhibition	more strongly inhibited tumor cell proliferation compared to Dimers 3 and 4	Strong inhibition	able to inhibit	Strong induction	28	52	53	68	69	70	0.036 ± 0.002	8 ± 2	rounded morphology	approximately 46 fold	more potent at inhibiting cell proliferation compared to Cilengitide (U87MG cells [5]; U87MG cells, 72 h): 100 fold; more effective in preventing U87MG cell adhesion compared to the monomer (U87MG cells [3]; fibronectin-coated plates): 100 fold
I: GCVRLHESCLGQQVPCCDPAATCYCYGRGDNDLRCYC[Dap] / II: GCVRLHESCLGQQVPCCDPAATCYCYGRGDNDLRCYC[Dap] (disulfide I:2-I:17, I:9-I:23, I:16-I:37, I:25-I:35, II:2-II:17, II:9-II:23, II:16-II:37, II:25-II:35; linker I:38-II:38 via X1) [AgRP 7C Dimer]															~4 fold	IC50 ([6]; 5 nM Alexa488-labeled AgRP 7C as competitor): 3.2 ± 0.6 nM
scrambled EETI FNRDG monomer [FNRDG_AO, reference compound]				not able to inhibit cell adhesion												inhibition of U87MG cell proliferation (in words) (U87MG cells [5]; scrambled controls): did not induce significant inhibition; binding (in words) ([6]; scrambled controls): negligible binding
